The source of these data is patent publication EP4772634A1, “DOUBLE-STRANDED RNA TARGETING COAGULATION FACTOR XI” (Chia Tai Tianqing Pharmaceutical Group Co., Ltd., priority 2023, dated 2025).

For series [1], the system named is human coagulation factor XI protein. The series can be described thus: In vivo activity in human coagulation factor XI model mice (Experimental Example 3), plasma FXI protein by ELISA. Particulars: humanized mice. The protocol:
The humanized mice used in this experimental example were purchased from Cyagen Biosciences Co., Ltd. The humanized mice were randomly divided into groups, with 4 mice per group. The compound and PBS control (pH = 7.2) were administered to each group of mice, respectively. The day of the first administration was designated as day 0 of the experiment. The corresponding compound solutions were administered via a single subcutaneous injection based on animal body weight, at administration doses of 1 mg/kg and 5 mg/kg. PBS control mice were each administered PBS, with an administration volume of 10 mL/kg body weight. Orbital blood was collected before administration and on day 7, day 14, day 28, day 42, and day 63 after administration. Plasma was separated, and the content of the coagulation factor XI protein in the plasma was measured at each time point.
About 165 µL of blood was collected from the orbital veins for plasma collection. A 3.8% trisodium citrate anticoagulant was added to the whole blood in a volume ratio of 1:9 (anticoagulant:[…], v/v), and the mixture was centrifuged at 3000 rpm at 20 °C for 15 min to collect plasma. The content of the coagulation factor XI protein in the plasma obtained from the above groups of mice (test groups administered the compound and PBS control group) was measured using a Human Coagulation Factor XI ELISA kit (Sigma, Cat. No. RAB1385-1KT).
(§1) The coagulation factor XI protein inhibition rate was calculated according to the following equation: [formula]
Table 11 lists the measurement of FXI protein content in animal plasma before and on day 7, day 14, day 28, day 42, and day 63 after a single subcutaneous administration of siRNA ligand conjugates (TD01M01L01, TD02M01L01) at doses of 1 mg/kg and 5 mg/kg to humanized homozygous mice. […] Table 11. In vivo experimental design
(In an ELISA, binding on a coated surface is turned into a signal by an enzyme label.)

The test system is the same in series [2]. Briefly: In vivo activity in human coagulation factor XI model mice (Experimental Example 4), FXI protein by ELISA. Particulars: female humanized homozygous mice, single subcutaneous 3 mg/kg. The protocol: The humanized mice used in this experimental example were purchased from Cyagen Biosciences Co., Ltd. The female humanized homozygous mice were randomly divided into groups, with 4 mice per group. The compound and PBS control (pH = 7.2) were administered to each group of mice, respectively. The day of the first administration was designated as day 0 of the experiment. The corresponding compound solutions were administered via a single subcutaneous injection based on animal body weight, at an administration dose of 3 mg/kg. PBS control mice were each administered PBS, with an administration volume of 10 mL/kg body weight. Orbital blood was collected before administration and on day 3, day 7, day 14, day 21, day 28, day 42, day 56, and day 70 after administration. Serum was separated, and the content of the coagulation factor XI protein in the serum at each time point was measured using a Human Coagulation Factor XI ELISA kit (Thermo, Batch No. 2350072722, Cat. No. EH118RB).
as §1
Table 13 lists the measurement of coagulation factor XI protein content in animal plasma before and on day 3, day 7, day 14, day 21, day 28, day 42, day 56, and day 70 after a single subcutaneous administration of siRNA ligand conjugates at a dose of 3 mg/kg to humanized homozygous mice. […] Table 13. In vivo experimental design

For series [3] the test system is unchanged. Briefly: In vivo activity in AAV-FXI model mice, serum FXI protein by ELISA. The conditions noted are these: AAV-FXI mice (C57BL/6 male), single subcutaneous 3 mg/kg. As to the method: 4-6 week old C57BL/6 male mice were injected via the tail vein with 1 × 10^11 vg of AAV8-FXI (WZ Biosciences). On day 28 after modeling, mice with an hFXI protein content of greater than 100 ng/mL were selected. The mice were randomly divided into groups based on body weight and were injected with 3 mg/kg of the dsRNA ligand conjugate of the present application (amount calculated based on siRNA only) on day 0. Orbital blood was collected on day 7, day 14, day 35, and day 56. Serum was separated, and the content of the coagulation factor XI protein in the serum at each time point was measured using a Human Coagulation Factor XI ELISA kit (Thermo, Cat. No. EH118RB).
as §1
The content of the coagulation factor XI protein in animal serum was measured before and on day 7, day 14, day 35, and day 56 after a single subcutaneous administration of the dsRNA ligand conjugate of the present application at a dose of 3 mg/kg to AAV-FXI mice (see Table 15). […] Table 15. In vivo experimental design

The mark [4] stands for this setting: single subcutaneous 1 mg/kg, D7.
Setting [5] is: single subcutaneous 1 mg/kg, D14.
The mark [6] stands for this setting: single subcutaneous 1 mg/kg, D28.
The mark [7] stands for this setting: single subcutaneous 1 mg/kg, D42.
The mark [8] stands for this setting: single subcutaneous 1 mg/kg, D63.
Where [9] appears, read: single subcutaneous 5 mg/kg, D7.
Setting [10] is: single subcutaneous 5 mg/kg, D14.
[11] abbreviates: single subcutaneous 5 mg/kg, D28.
Where [12] appears, read: single subcutaneous 5 mg/kg, D42.
[13] abbreviates: single subcutaneous 5 mg/kg, D63.

On to “TD01M01L01: siRNA ligand conjugate: TD01M01 with L01 (GalNAc) ligand at 3' end of sense strand SEQ ID NO 29; antisense SEQ ID NO 30 (sense GATCTCCAACTAAAATACT; antisense AGTATTTTAGTTGGAGATCCG; GalNAc L01 ligand at sense 3' end, 2'-OMe/2'-F, pattern not given here)”, for which the “Relative inhibition rate (%) of FXI protein” value (shortened to “Relative inhibition rate (%)”) in series [1] (setting [4]) worked out at 58.1%; in series [1] (setting [5]), 67.5%; in series [1] (setting [6]) it was 58.6%; in series [1] (setting [7]), 68.8%; in series [1] (setting [8]), 41.3%; in series [1] (setting [9]), 90.5%. In addition, the “Relative inhibition rate (%)” value in series [1] (setting [10]) was 92.8%; in series [1] (setting [11]), 89.5%; in series [1] (setting [12]), 91.8%; in series [1] (setting [13]) it was 74.4%.
In the case of “TD01M02L01: siRNA ligand conjugate: TD01M02 with L01 (GalNAc) ligand at 3' end of sense strand SEQ ID NO 31; antisense SEQ ID NO 32 (sense GATCTCCAACTAAAATACT; antisense AGTATTTTAGTTGGAGATCCG; GalNAc L01 ligand at sense 3' end, 2'-OMe/2'-F, pattern not given here)”, the “Relative inhibition rate (%)” value in series [1] (setting [4]) is listed as 65.1%; in series [1] (setting [5]) it was 67.4%; in series [1] (setting [6]), 62.5%; in series [1] (setting [7]), 69.3%; in series [1] (setting [8]) it was 44.6%; in series [1] (setting [9]) it was 90.9%. Besides, the “Relative inhibition rate (%)” value in series [1] (setting [10]) is given as 93.1%; in series [1] (setting [11]), 92.4%; in series [1] (setting [12]) it was 93.1%; in series [1] (setting [13]), 76.6%; in series [2] (D3), 69.3%; in series [2] (D7) it was 88.5%. Further, the “Relative inhibition rate (%)” value in series [2] (D14) was determined as 91.8%; in series [2] (D21) it was 91.7%; in series [2] (D28), 91.3%; in series [2] (D42), 86.1%; in series [2] (D56), 76.1%; in series [2] (D70), 68.9%.
On to “TD02M01L01: siRNA ligand conjugate: TD02M01 with L01 (GalNAc) ligand at 3' end of sense strand SEQ ID NO 33; antisense SEQ ID NO 34 (sense GGATGATTTTCTTATATCA; antisense TGATATAAGAAAATCATCCTG; GalNAc L01 ligand at sense 3' end, 2'-OMe/2'-F, pattern not given here)”, for which the “Relative inhibition rate (%)” value was 61.5% in series [1] (setting [4]); 63.9% in series [1] (setting [5]); 49.2% in series [1] (setting [6]); 52.9% in series [1] (setting [7]); 41.1% in series [1] (setting [8]); 91.8% in series [1] (setting [9]). The “Relative inhibition rate (%)” value in series [1] (setting [10]) is recorded as 94.0%; in series [1] (setting [11]), 87.8%; in series [1] (setting [12]), 89.4%; in series [1] (setting [13]), 69.0%.
As to “TD05M02L01: dsRNA ligand conjugate: TD05M02 with L01 (GalNAc) ligand at 3' end of sense strand SEQ ID NO 47; antisense SEQ ID NO 48 (sense CTTTTCAGGATGATTTTCT; antisense AGAAAATCATCCTGAAAAGAC; GalNAc L01 ligand at sense 3' end, 2'-OMe/2'-F, pattern not given here)”, the “Relative inhibition rate (%)” value worked out at 96.3% in series [3] (D7), 96.6% in series [3] (D14), 81.7% in series [3] (D35) and 51.0% in series [3] (D56).
With “TD12M02L01: dsRNA ligand conjugate: TD12M02 with L01 (GalNAc) ligand at 3' end of sense strand SEQ ID NO 75; antisense SEQ ID NO 76 (sense TGATTTTCTTATATCAAGT; antisense ACTTGATATAAGAAAATCATC; GalNAc L01 ligand at sense 3' end, 2'-OMe/2'-F, pattern not given here)”, the “Relative inhibition rate (%)” value in series [3] (D7) turned out to be 88.4%; in series [3] (D14), 88.0%.
